Where a name gives a salt, the structure may show the parent alone.
Target: T1, Fibrinogen (FB) (Bos taurus, UniProt P02672+P02676+P12799)
T1 sequence (P02672 20-615): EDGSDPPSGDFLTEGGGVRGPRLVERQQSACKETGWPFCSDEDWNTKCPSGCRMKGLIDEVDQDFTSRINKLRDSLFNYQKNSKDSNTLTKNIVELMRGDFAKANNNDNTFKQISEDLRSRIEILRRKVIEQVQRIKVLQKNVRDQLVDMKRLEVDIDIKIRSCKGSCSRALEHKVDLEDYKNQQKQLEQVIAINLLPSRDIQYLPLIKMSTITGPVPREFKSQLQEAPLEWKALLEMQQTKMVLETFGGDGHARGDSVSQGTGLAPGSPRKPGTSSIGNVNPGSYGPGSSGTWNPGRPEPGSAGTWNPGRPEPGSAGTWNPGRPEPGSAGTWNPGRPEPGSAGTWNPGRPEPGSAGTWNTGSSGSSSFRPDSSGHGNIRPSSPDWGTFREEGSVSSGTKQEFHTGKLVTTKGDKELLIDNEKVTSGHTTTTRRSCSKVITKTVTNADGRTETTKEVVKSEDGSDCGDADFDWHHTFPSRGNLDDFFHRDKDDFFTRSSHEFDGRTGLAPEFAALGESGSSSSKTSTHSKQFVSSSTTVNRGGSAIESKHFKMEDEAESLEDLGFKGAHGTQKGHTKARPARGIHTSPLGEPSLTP
T1 sequence (P02676 1-468): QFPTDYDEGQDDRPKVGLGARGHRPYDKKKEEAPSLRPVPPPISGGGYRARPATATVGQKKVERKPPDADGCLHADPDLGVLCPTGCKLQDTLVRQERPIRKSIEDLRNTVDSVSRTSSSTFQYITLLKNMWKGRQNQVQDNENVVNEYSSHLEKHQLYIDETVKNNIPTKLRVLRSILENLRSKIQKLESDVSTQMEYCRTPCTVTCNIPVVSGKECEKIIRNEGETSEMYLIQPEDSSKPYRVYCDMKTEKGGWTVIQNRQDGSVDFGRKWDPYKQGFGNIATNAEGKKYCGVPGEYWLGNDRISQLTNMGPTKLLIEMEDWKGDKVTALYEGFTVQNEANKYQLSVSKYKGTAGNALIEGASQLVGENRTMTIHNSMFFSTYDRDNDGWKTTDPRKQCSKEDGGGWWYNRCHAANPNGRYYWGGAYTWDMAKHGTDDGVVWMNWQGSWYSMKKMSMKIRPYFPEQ
T1 sequence (P12799 25-444): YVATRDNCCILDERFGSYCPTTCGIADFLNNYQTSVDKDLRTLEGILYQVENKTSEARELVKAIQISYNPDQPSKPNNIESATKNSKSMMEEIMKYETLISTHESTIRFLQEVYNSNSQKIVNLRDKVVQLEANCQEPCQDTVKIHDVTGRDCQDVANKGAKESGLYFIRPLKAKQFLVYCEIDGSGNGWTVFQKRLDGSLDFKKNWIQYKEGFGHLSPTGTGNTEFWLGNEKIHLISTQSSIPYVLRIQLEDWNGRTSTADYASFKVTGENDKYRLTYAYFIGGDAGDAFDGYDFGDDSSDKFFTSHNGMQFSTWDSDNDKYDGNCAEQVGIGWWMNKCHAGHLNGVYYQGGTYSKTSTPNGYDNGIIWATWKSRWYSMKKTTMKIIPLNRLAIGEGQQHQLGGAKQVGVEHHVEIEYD
Test: intrinsic fluorescence quenching titration
Type: binding

- Kd: 1.65 mM
SMILES: CC(C)(C)NC[C@H](O)COc1nsnc1N1CCOCC1 [TM, Timolol maleate]

Reference: article PMC12391474 (Scientific Reports, 2025)
